Test results: US20120329770A1, “CEPHALOSPORIN DERIVATIVES USEFUL AS BETA-LACTAMASE INHIBITORS AND COMPOSITIONS AND METHODS OF USE THEREOF” (priority 2010, published 2012)

How the values were obtained:
[1] = target: T1, IMP-1 (Serratia marcescens, UniProt P52699); test: Inhibition of IMP-1-catalyzed hydrolysis of meropenem in vitro (310 nm); format: biochemical; conditions: for protection of meropenem from IMP-1-catalyzed hydrolysis in vitro: IMP-1 12 nM, meropenem 200 μM, test substance 100 μM, 310 nm
T1 construct: made in house; host or cells: Escherichia coli BL21(DE3) carrying pCIP4

[2] = test system: Pseudomonas aeruginosa IS 5563; test: Antimicrobial MIC / checkerboard assay for synergy with meropenem; format: cell-based; conditions: for FIC: P. aeruginosa IS 5563, meropenem + compound, checkerboard
Protocol: (§1) Assays were conducted as described by Weigand et al. (Weigand, I.; Hilpert, K.; Hancock, R. E. Nat. Protocols 2008, 3, 163-175).
(§2) To determine the lowest concentration of an antimicrobial agent that inhibits visible growth of a microorganism, 50 μL of compound solution and 50 μL of buffer solution were added to each well at the desired concentration(s) (i.e. 4×the final concentration) as well as a zero control. Stock solutions of 10 mg/mL, were prepared in DMSO, followed by two-fold serial dilutions in Müeller-Hinton media and 100 μL of bacteria (ca. 5×10^5 CFU/mL) was added to each well. Plate counts were performed on the control wells to determine bacterial innoculum level. The innoculum was prepared by taking an overnight culture in Müeller-Hinton media and diluting to McFarland's 0.5 standard, and diluting a further 1:100 prior to addition to the plate. Lanes with no bacteria added served as sterility controls and lanes with no compound served as growth controls. Organisms were allowed to grow overnight at 37° C. in a humid environment and the plates were monitored at 625 nm for growth. MIC was determined to be the last well with no growth.
(§3) In the checkerboard assay one compound is serially diluted along the ordinate, and the second compound is serially diluted along the abscissa. […] A 50 μL aliquot of the compound was added to each well at the desired concentration(s) (i.e. 4×the final concentration) as well as a zero control. Stock solutions of 10 mg/mL of compound were prepared in DMSO, followed by two-fold serial dilutions in Müeller-Hinton media. Finally, 100 μL of bacteria (ca. 5×10^5 CFU/mL) was added to each well. Plate counts were performed on the control wells. Innoculum was prepared by taking an overnight culture in Müeller-Hinton media and diluting to McFarland's 0.5 standard, and diluting a further 1:100 prior to addition to the plate. […] The final volume in each well was 200 μL. The plates were allowed to grow overnight at 37° C. in a humid environment and were monitored at 625 nm for growth. […] Sterility controls and growth controls were included on each plate. The fractional inhibitory concentration (FIC) was determined as follows:
(§4) Results were interpreted in the following way: Synergistic if FIC≦0.5; Additive if […]; Indifferent if […]; Antagonistic if FIC≧2.0.

[3] = test system: Stenotrophomonas maltophilia IS 5568; test: as above; format: cell-based; conditions: for FIC: S. maltophilia IS 5568, meropenem + compound, checkerboard
Protocol: as §1, §2, §3, §4

[4] = test system: Stenotrophomonas maltophilia IS 6069; test: as above; format: cell-based; conditions: S. maltophilia IS 6069, meropenem + compound
Protocol: as §1, §2
(§5) In the checkerboard assay one compound is serially diluted along the ordinate, and the second compound is serially diluted along the abscissa. […] A 50 μL aliquot of the compound was added to each well at the desired concentration(s) (i.e. 4×the final concentration) as well as a zero control. Stock solutions of 10 mg/mL of compound were prepared in DMSO, followed by two-fold serial dilutions in Müeller-Hinton media. Finally, 100 μL of bacteria (ca. 5×10^5 CFU/mL) was added to each well. Plate counts were performed on the control wells. Innoculum was prepared by taking an overnight culture in Müeller-Hinton media and diluting to McFarland's 0.5 standard, and diluting a further 1:100 prior to addition to the plate. Lanes with no bacteria added served as sterility controls and lanes with no meropenem or compound served as growth controls. The final volume in each well was 200 μL. The plates were allowed to grow overnight at 37° C. in a humid environment and were monitored at 625 nm for growth. […] Sterility controls and growth controls were included on each plate. The fractional inhibitory concentration (FIC) was determined as follows:
as §4

[5] = test system: Pseudomonas aeruginosa IS 6225; test: as above; format: cell-based; conditions: P. aeruginosa IS 6225, meropenem + compound
Protocol: as §1, §2, §5, §4

[6] = test system: Chryseobacterium meningosepticum IS 5824; test: as above; format: cell-based; conditions: for FIC: meropenem + compound, checkerboard
Protocol: as §1, §2, §5, §4

[7] = test system: Pseudomonas aeruginosa C-10; test: as above; format: cell-based; conditions: P. aeruginosa C-10; for FIC: meropenem + compound, checkerboard
Protocol: as §1, §2, §5, §4

[8] = test system: Stenotrophomonas maltophilia IS 6081; test: as above; format: cell-based; conditions: S. maltophilia IS 6081, meropenem + compound
Protocol: as §1, §2, §5, §4

[9] = target: T2, IMP-1 metallo-β-lactamase (Serratia marcescens, UniProt P52699); test: Inhibition of β-lactamases, nitrocefin hydrolysis; format: biochemical
T2 construct: made in house; host or cells: Escherichia coli BL21(DE3) carrying pCIP4
From the text: IMP-1 metallo-β-lactamase was expressed in Esherichia coli BL21(DE3) carrying pCIP4 and purified as reported by Laraki et al. (Antimicrob. Agents Chemother. 1999, 43, 902-906). The homogeneity of the protein was confirmed by SDS-PAGE according to the method of Laemmli (Nature 1970, 227, 680-685). The molecular weight of purified IMP-1, Mr=25,112±0.5 Da, as determined by ESI-MS, was in agreement with that deduced from its amino acid sequence (Laraki et al. Antimicrob. Agents Chemother. 1999, 43, 890-901).
Assay conditions for IC50 determinations involved enzyme concentrations ranging between 2 and 6 nM. The concentration used for the nitrocefin substrate was 100 μM. Assays with OXA-10 and OXA-45 were conducted at pH 7.0 with 100 mM sodium phosphate buffer containing 25 mM sodium bicarbonate. Assays with KPC-2 and GC1 were performed at pH 7.0 in 50 mM HEPES buffer and assays with IMP-1 and VIM-2 were performed in the same buffer with the addition of 500 mM NaCl and 1 μM ZnSO4. BSA was used with all enzymes (except OXA-10 and KPC-2) at concentrations of 0.5-1.0 μg/mL.
Inhibitors were pre-incubated for 10 minutes at room temperature with enzyme assay solutions prior to the addition of the nitrocefin. These compounds were dissolved in DMSO and prepared at various concentrations such that the final concentration of DMSO was 1% during the pre-incubation. The reaction was initiated by the addition of the pre-incubated enzyme-cyclobutanone solution (90 μL) to a solution of nitrocefin in buffer (10 μL). Enzymatic activity was determined using the initial rate of increase in absorbance at 482 nm

[10] = test system: β-lactamases; test: β-Lactamase inhibition, result in words; format: biochemical
From the text: In preferred embodiments, the compounds incorporate a good leaving group at the C3′ carbon that can be readily expelled as an anion. In some embodiments, the leaving group is a C3′-benzoylthio group, which may be substituted or unsubstituted, according to the definitions provided above for substituted or unsubstituted.
This effect correlates with the expected better leaving group ability of the benzoylthio group in the hydrolysis product versus the benzoate group in the comparative compound.

T1 sequence (P52699 19-246 limits assumed): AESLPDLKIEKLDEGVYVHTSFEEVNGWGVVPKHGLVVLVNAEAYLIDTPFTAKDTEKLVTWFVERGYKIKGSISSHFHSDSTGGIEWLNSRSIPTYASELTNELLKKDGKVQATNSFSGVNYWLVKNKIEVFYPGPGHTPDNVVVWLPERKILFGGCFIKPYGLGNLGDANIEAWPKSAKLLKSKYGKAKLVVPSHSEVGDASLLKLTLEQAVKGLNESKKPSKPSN
T2 sequence (P52699 19-246, looked up): as the sequence (P52699 19-246 limits assumed) above

With `O=C(Cc1ccc(F)cc1)N[C@@H]1C(=O)N2C(C(=O)O)=C(CSC(=O)c3ccccc3)CS[C@H]12` [Example 16, (6R,7R)-3-(benzoylthiomethyl)-7-(2-(4-fluorophenyl)acetamido)-8-oxo-5-thia-1-azabicyclo[4.2.0]oct-2-ene-2-carboxylic acid] the “protection of meropenem from IMP-1-catalyzed hydrolysis in vitro” value [1] was “good protection”.
Work on `O=C(Cc1ccc(F)cc1)N[C@@H]1C(=O)N2C(C(=O)O)=C(CSC(=O)c3ccccc3)CS[C@H]12` [CMPD E] yielded an FIC [2] of 0.1269, an FIC [3] of 0.126 and an FIC [4] of 0.1875. It also gave an FIC [5] of 2, an FIC ([6]; C. meningosepticum IS 5824) of 0.2578 and an FIC [7] of 0.625. The FIC [8] was 1.03.
In the case of `O=C(Cc1ccc(Cl)cc1)N[C@@H]1C(=O)N2C(C(=O)O)=C(CSC(=O)c3ccccc3)CS[C@H]12` [CMPD D], the FIC [2] is reported as 0.2519, the FIC [3] is reported as 0.126 and the FIC [4] is reported as 0.1875. For the same compound, the FIC [5] was 2, the FIC ([6]; C. meningosepticum IS 5824) was 0.2578 and the FIC [7] was 1. It also gave an FIC [8] of 1.03.
In the case of `OC(=S)c1ccccc1` [benzoylthio, reference compound], the “inhibition of the MBL IMP-1” value [9] is reported as “poor inhibitor”.
`O=C(Cc1cccs1)NC1C(=O)N2C(C(=O)O)=C(COC(=O)c3ccccc3)CSC12` (centres unmarked) [oxygen analogue, reference compound] was tested, and the “β-lactamase inhibition” value [10] was “substrate but not an inhibitor”.
For `CC(=O)SCC1=C(C(=O)O)N2C(=O)[C@@H](NC(=O)Cc3cccs3)[C@H]2SC1` [Example 12, (6R,7R)-3-(acetylthiomethyl)-8-oxo-7-(2-(thiophen-2-yl)acetamido)-5-thia-1-azabicyclo[4.2.0]oct-2-ene-2-carboxylic acid], the “performance as inhibitor” value [1] was “poor performance”.
In the case of `C[C@@H](O)[C@H]1C(=O)N2C(C(=O)O)=C(S[C@@H]3CN[C@H](C(=O)N(C)C)C3)[C@H](C)[C@H]12` [Mero, meropenem, reference compound], the MIC ([2]; Pseudomonas aeruginosa, IS5563, read-out: MIC Mero Alone, P. aeruginosa IS 5563) is reported as 64 µg/mL, the MIC ([3]; Stenotrophomonas maltophilia, IS5568, read-out: MIC Mero Alone, S. maltophilia IS 5568) is reported as 64 µg/mL and the “MIC Mero Alone” value ([6]; C. meningosepticum IS 5824) is reported as 32 µg/mL. For the same compound, the MIC ([6]; Elizabethkingia meningoseptica, IS5824, read-out: MIC Mero Alone, C. meningosepticum IS 5824) was 64 µg/mL and the MIC ([7]; Pseudomonas aeruginosa, C10, read-out: MIC Mero Alone) was 16 µg/mL.
Work on `O=C(Cc1cccs1)N[C@@H]1C(=O)N2C(C(=O)O)=C(CSC(=O)c3ccccc3)CS[C@H]12` [CMPD B] yielded an FIC [2] of 0.1328, an FIC [3] of 0.1289 and an FIC [4] of 0.1875. For the same compound, the FIC [5] was 0.375, the FIC ([6]; C. meningosepticum IS 5824) was 0.5078 and the FIC [8] was 0.1328.
In the case of `CO/N=C(\C(=O)N[C@@H]1C(=O)N2C(C(=O)O)=C(CSC(=O)c3ccco3)CS[C@H]12)c1csc(N)n1` [ceftiofur], the “performance as inhibitor” value [1] is reported as “poor performance” and the “protection of meropenem from IMP-1-catalyzed hydrolysis in vitro” value [1] is reported as “relatively poor protection”.
For `COc1cccc(CC(=O)N[C@@H]2C(=O)N3C(C(=O)O)=C(CSC(=O)c4ccccc4)CS[C@H]23)c1` [CMPD F], the FIC [2] was 0.2519, the FIC [3] was 0.126 and the FIC [4] was 0.1875. The FIC [5] was 3, the FIC ([6]; C. meningosepticum IS 5824) was 0.2578 and the FIC [7] was 1.5. For the same compound, the FIC [8] was 0.281.
